These are literature values, as cited in patent US20050215571A1, “Therapeutic combination for cognititon enhancement and psychotic disorders” (Pfizer Inc., priority 2003, published 2005).

For orientation: half-life means the time needed for the level to fall by half in the phase considered.

Assay in series [1]: not given
This is another data set of the same source.

As to `O=C1Cc2cc(CCN3CCN(c4nsc5ccccc45)CC3)c(Cl)cc2N1` [Ziprasidone, 5-[2-[4-(1,2-benzisothiazol-3-yl)piperazin-1-yl]ethyl]-6-chloroindolin-2-one], the protein binding entry is given as “extensive”. Besides, the half-life in series [1] (in vivo) was 6 to 7 h. The Oral bioavailability entry in series [1] (oral, taken with food) is “approximately 60%”.
